Patent publication US8445677B2, “Substituted pyrimidyl guanidine derivatives having anticancer activity” (University of Southern California, priority 2008, dated 2013)

Key:
[1] = test system: HCT116 p53+/+; assay: MTT cytotoxicity assay (Example 1); format: cell-based; details: for IC50: MTT, 72 h
From the text: (§1) Human breast cancer cells MDA-MB-435 were purchased from the American Type Culture Collection (Manassas, Va.). The HCT116 p53+/+ and HCT116 p53−/− cells were kindly provided by Dr. Bert Vogelstein (Johns Hopkins Medical Institutions, Baltimore, Md.). The human ovarian carcinoma cell line (HEY) which is naturally resistant to cisplatin, was kindly provided by Dr. Louis Dubeau, University of Southern California (USC) Norris Cancer Center, and NIH3T3 normal mouse fibroblast cells were kindly provided by Dr. Michael Press from USC. HEY and NIH3T3 cells were maintained as monolayer cultures in RPMI, HCT 116 cells in McCoy1s5A media and MDA-MB 435 in DMEM. Media were purchased from (Mediatech, Virginia) and supplemented with 10% fetal bovine serum (Gemini-Bioproducts, Woodland, Calif.), 2 mM L-glutamine and 5% Penicillin/streptomycin from Bio whittaker were purchased from VWR. Cells were incubated at 37° C. in a humidified atmosphere of 5% CO2. To remove the adherent cells from the flask for passaging and counting, cells were washed with PBS without calcium or magnesium, incubated with a small volume of 0.25% trypsin-EDTA solution (Sigma-Aldrich, St. Louis, Mo.) for 5-10 min, and washed with culture medium and centrifuged. All experiments were performed using cells at exponential growth stage. Cells were routinely checked for mycoplasma contamination using a PCR-based assay (Stratagene, Tex., USA).
(§2) Stock solutions (10 mM) of all compounds were prepared in DMSO and stored at −20° C. Further dilutions were made fresh in PBS or cell-culture media right before cell treatment.
(§3) Cytotoxicity was assessed by a 3-(4,s-dimethylthiazol-2-yl)-2,5-diphenyltetrazolium bromide (MTT) assay as previously described.^24 Briefly, cells were seeded in 96-well microtiter plates and allowed to attach overnight. Cells were subsequently treated with continuous exposure to the corresponding drug for 72 h. A MTT solution (at a final concentration of 0.5 mglml) was added to each well, and cells were incubated for 4 h at 37° C. After removal of the medium, DMSO was added and the absorbance was read at 570 nm. All assays were done in triplicate. The IC50 was then determined for each drug from a plot of log (drug concentration) versus percentage of cells killed.

[2] = test system: HCT116 p53−/−; assay: MTT cytotoxicity assay (Example 1); format: cell-based; details: for IC50: MTT, 72 h
From the text: as §1, §2, §3

[3] = test system: HEY; assay: MTT cytotoxicity assay (Example 1); format: cell-based, human; details: 72 h
From the text: as §1, §2, §3

[4] = test system: MDA-MB-435; assay: MTT cytotoxicity assay (Example 1); format: cell-based, human; details: Homo sapiens, MDA-MB-435, 72 h
From the text: as §1, §2, §3

[5] = test system: NIH3T3; assay: MTT cytotoxicity assay (Example 1); format: cell-based, mouse; details: Mus musculus, NIH3T3, 72 h
From the text: as §1, §2, §3

[6] = test system: panel of cancer cell lines; assay: MTT cytotoxicity, panel of cancer cell lines (Example 1); format: cell-based; details: other selected cells, dose up to 10.0 μM
From the text: as §1, with “To remove the adherent cells from the flask for passaging and counting, cells were washed with PBS without calcium or magnesium, incubated with a small volume of 0.25% trypsin-EDTA solution (Sigma-Aldrich, St. Louis, Mo.) for 5-10 min, and washed with culture medium and centrifuged. All experiments were performed using cells at exponential growth stage. Cells were routinely checked for mycoplasma contamination using a PCR-based assay (Stratagene, Tex., USA).” left out
Cytotoxicity was assessed by a 3-(4,s-dimethylthiazol-2-yl)-2,5-diphenyltetrazolium bromide (MTT) assay as previously described.^24 Briefly, cells were seeded in 96-well microtiter plates and allowed to attach overnight. […] After removal of the medium, DMSO was added and the absorbance was read at 570 nm. […] The IC50 was then determined for each drug from a plot of log (drug concentration) versus percentage of cells killed.

**Q.** Which toxicity [1] does the source give for Cc1cccc(Nc2nc3nonc3nc2NN=Cc2ccc(-c3ccccc3Cl)o2)c1C [Compound 19] here?
**A.** toxic

**Q.** And the IC50 ([1]; Homo sapiens, HCT-116, 72 h)?
**A.** 3000 nM

**Q.** And the IC50 [1]?
**A.** 2000 nM

**Q.** And the toxicity [2]?
**A.** toxic

**Q.** And the IC50 ([2]; Homo sapiens, HCT-116, 72 h)?
**A.** 6 µM

**Q.** And the IC50 [2]?
**A.** 4 µM

**Q.** And the IC50 [3]?
**A.** 5 µM

**Q.** And the IC50 ([3]; Homo sapiens)?
**A.** 3 µM

**Q.** What about the IC50 [4] of the same compound?
**A.** > 10 µM

**Q.** What about the IC50 [5] of the same compound?
**A.** > 10 µM

**Q.** What about the toxicity [6] of the same compound?
**A.** not toxic
